Measurements as given in PubChem BioAssay (NCI).
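In this assay, cells in 96-well plates receive the compound at five concentrations for 48 hours. Endpoints are linearly interpolated between the surrounding concentrations. The concentration for 50% growth inhibition is given as GI50. The concentration for full growth arrest is given as TGI.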

Tests used:
Assay in all cases: NCI anticancer screen, dose series, 48 h
[1] = tested on: BT-549 breast
[2] = tested on: SF-295 CNS
[3] = tested on: K-562 leukemia
[4] = tested on: NCI/ADR-RES ovarian
[5] = tested on: RXF 393 renal
[6] = tested on: T-47D breast
[7] = tested on: OVCAR-5 ovarian
[8] = tested on: SF-539 CNS
[9] = tested on: SK-MEL-5 melanoma
[10] = tested on: MDA-MB-435

Row | Structure (SMILES) | TGI [1] | TGI [2] | TGI [3] | TGI [4] | TGI [5] | TGI [6] | TGI [7] | TGI [8] | TGI [9] | TGI [10] | GI50 [1] | GI50 [2] | GI50 [3] | GI50 [4] | GI50 [5] | GI50 [6] | GI50 [7] | GI50 [8] | GI50 [9] | GI50 [10]
1 | NCC(Cc1ccccc1)P(=O)(O)O (stereo not given) | > 100 µM | > 100 µM | > 100 µM | > 100 µM | > 100 µM | > 100 µM | > 100 µM | > 100 µM | > 100 µM | > 100 µM | – | – | – | – | – | – | – | – | – | –
2 | Cc1ccccc1CNc1c2ccccc2nc2ccccc12 | 6.15 µM | 11.8 µM | 11.4 µM | 6.16 µM | 3.14 µM | 5.93 µM | 7.57 µM | 4 µM | 3.05 µM | 3.18 µM | 2.18 µM | 2.67 µM | 2.32 µM | 2.07 µM | 1.63 µM | 2.08 µM | 2.08 µM | 1.84 µM | 1.69 µM | 1.67 µM
3 | COc1cc2c(cc1OC)C(SC)C(=O)N(Cc1cccc(OC)c1OC)CC2 (stereo not given) | 33.2 µM | > 43.6 µM | 41.4 µM | 88.8 µM | > 48.1 µM | 21.2 µM | 98.3 µM | 9.13 µM | 9.52 µM | 8.36 µM | – | – | – | – | – | – | – | – | – | –
4 | CCN(CCNc1ccc(C)c2sc3cc(Cl)ccc3c(=O)c12)CC(C)(C)O | > 100 µM | 4.34 µM | 11.7 µM | 30.5 µM | 5.4 µM | 37.5 µM | 27.7 µM | 24 µM | 3.49 µM | 4.59 µM | 18.7 µM | 1.86 µM | 3.19 µM | 6.37 µM | 2.3 µM | 11.8 µM | 10.5 µM | 5.54 µM | 1.83 µM | 2 µM
5 | O=C(Nc1nc2c(s1)CCc1c-2c(Br)n(Cc2ccccc2)c1Br)c1ccccc1 | 8.01 µM | 13.2 µM | > 100 µM | > 100 µM | 7.69 µM | 19.7 µM | > 100 µM | 3.38 µM | 11.6 µM | 35.9 µM | 2.53 µM | 3.01 µM | 22.9 µM | 21 µM | 2.01 µM | 1.4 µM | 47.3 µM | 1.55 µM | 2.17 µM | 2.97 µM
6 | CCN(CC)CCS(=O)(=O)CCNc1ccnc2cc(Cl)ccc12 | 9.62 µM | > 64 µM | > 49.8 µM | 4.73 µM | 5.8 µM | 48.8 µM | > 100 µM | 14.3 µM | 10.4 µM | > 20.5 µM | 2.94 µM | 8.38 µM | 0.96 µM | 1.12 µM | 1.32 µM | 6.23 µM | 3.97 µM | 2.93 µM | 3.79 µM | 1.65 µM
7 | Cc1n(Cc2ccc3ccccc3n2)cc[n+]1Cc1ccc2ccccc2c1 | 4.1 µM | 7.62 µM | 12.9 µM | > 100 µM | 17.4 µM | 7.22 µM | 13 µM | 8.76 µM | 1.61 µM | 2.69 µM | 0.64 µM | 1.47 µM | 0.422 µM | > 100 µM | 3.59 µM | 0.371 µM | 1.67 µM | 0.579 µM | 0.533 µM | 0.412 µM
